These results are taken from PMC4965013, “Open Source Drug Discovery with the Malaria Box Compound Collection for Neglected Diseases and Beyond” (PLoS Pathogens, 2016).

The target of test [1] is Pf KRS Lysyl-tRNA Synthetase (Plasmodium falciparum, UniProt Q8IDJ8). As to the kind of experiment: PfKRS Kinase-Glo aminoacylation. Particulars: control 1µM; compounds 10 µM. Background: In Kinase-Glo more light means more ATP remaining.
For another test, the system named is PK7. Also noted: method as in ref [25] (a number printed in a supplementary file, which may have a reference list of its own: not looked up in the article's list). To be noted: control 100 µM; compounds 1 µM; ref [25]; cited from earlier work.
The next test deals with P. falciparum. Kind of test: EC50 listed in S2 Table Metabolomics (used to set the concentration tested). It counts as cell-based. To be noted: Plasmodium falciparum; EC50 used for Factor_XEC50 in metabolomics; read-out: EC50_nM.
Test [2] relates to P. falciparum 3D7 trophozoites. Kind of test: Metabolomic fingerprint profiling LC-MS. It counts as cell-based, Plasmodium falciparum. Also on record: UDP-D-glucose / ADP-D-glucose: unit not given here.
A further test concerns PfEg5. Also noted: method as in ref [29] (a number printed in a supplementary file, which may have a reference list of its own: not looked up in the article's list). To be noted: ref [29]; cited from earlier work.
Another test concerns PvEg5. Also on record: method as in ref [29] (a number printed in a supplementary file, which may have a reference list of its own: not looked up in the article's list). To be noted: ref [29]; cited from earlier work.
For the next test, the system named is P. falciparum HB3. As to the kind of experiment: Stage-specificity / mitochondrial integrity image assay Ayong. The format is cell-based. To be noted: 10µM.
Another test deals with rhodesain (Trypanosoma brucei rhodesiense, UniProt Q95PM0). Kind of test: rhodesain Z-FR-AMC cleavage. The format is biochemical. To be noted: 500 nM. As for the experimental part: (§1) Cysteine Protease Inhibitors Cruzain and Rhodesain, Ferreira group (data presented first in this paper). Recombinant cruzain was gently provided by Allison Doak and Dr. Brian Shoichet (University of California, San Francisco), while rhodesain was kindly provided by Dr. Conor Caffrey (Center for Discovery and Innovation in Parasitic Diseases, Skaggs School of Pharmacy and Pharmaceutical Sciences, University of California San Diego). Cruzain and rhodesain activity were measured as previously described, (Ferreira et al., 2010) by monitoring the cleavage of the fluorogenic substrate Z-Phe-Argaminomethylcoumarin (Z-FR-AMC) in a Synergy 2 (Biotek), from the Center of Flow Cytometry and Fluorimetry at the Biochemistry and Immunology Department (Universidade Federal de Minas Gerais, UFMG). Formation of fluorescent 4-amino-7-metyhlcoumarin was measured employing 340 nm wavelength for excitation and 440 nm for emission. […] Initially compounds were pre-incubated with the enzyme for 10 minutes in 100 µL assay buffer, then 100 µL of 5 μM substrate solution was added and the reaction was immediately monitored. Assays were performed in duplicate, followed for 5 min and activity was calculated based on initial velocities. […] Reported values refer to average and standard errors calculated based on duplicates. […] Data was analyzed with Prism 5.0 (GraphPad). […]
Chain of rhodesain (Q95PM0 entry or part of it): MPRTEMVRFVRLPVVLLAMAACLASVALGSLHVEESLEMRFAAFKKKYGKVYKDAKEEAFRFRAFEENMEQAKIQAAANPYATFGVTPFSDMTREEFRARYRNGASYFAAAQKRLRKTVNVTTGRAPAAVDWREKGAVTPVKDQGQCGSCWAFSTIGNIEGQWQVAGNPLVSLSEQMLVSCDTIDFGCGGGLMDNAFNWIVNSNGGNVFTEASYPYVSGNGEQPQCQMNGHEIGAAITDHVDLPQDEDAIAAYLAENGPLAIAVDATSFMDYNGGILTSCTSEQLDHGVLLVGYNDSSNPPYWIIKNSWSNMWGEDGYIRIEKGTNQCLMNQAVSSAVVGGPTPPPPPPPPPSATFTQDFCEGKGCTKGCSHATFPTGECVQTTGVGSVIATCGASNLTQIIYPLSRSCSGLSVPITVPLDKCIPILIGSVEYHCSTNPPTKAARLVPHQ

A further test has as its target cruzain (Trypanosoma cruzi, UniProt P25779). Kind of test: cruzain Z-FR-AMC cleavage. The format is biochemical. To be noted: 500 nM. As for the experimental part: as §1
In another test the target is P. falciparum HDAC1 (Plasmodium falciparum, UniProt Q7K6A1). As to the kind of experiment: PfHDAC1 HDAC glo I/II. Particulars: 50nM. The format is biochemical.
Chain of P. falciparum HDAC1 (Q7K6A1 entry or part of it): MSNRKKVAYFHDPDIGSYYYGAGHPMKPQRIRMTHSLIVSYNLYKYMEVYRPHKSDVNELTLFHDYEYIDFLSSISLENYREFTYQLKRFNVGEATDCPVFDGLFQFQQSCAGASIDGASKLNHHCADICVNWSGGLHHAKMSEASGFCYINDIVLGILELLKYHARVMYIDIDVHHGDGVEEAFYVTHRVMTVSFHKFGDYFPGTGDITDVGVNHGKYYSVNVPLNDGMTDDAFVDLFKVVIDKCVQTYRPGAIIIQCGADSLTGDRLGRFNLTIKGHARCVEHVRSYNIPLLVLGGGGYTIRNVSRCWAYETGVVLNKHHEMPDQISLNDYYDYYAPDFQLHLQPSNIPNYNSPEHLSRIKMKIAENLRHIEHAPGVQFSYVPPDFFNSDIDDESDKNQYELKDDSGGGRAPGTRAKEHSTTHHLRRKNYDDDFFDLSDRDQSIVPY
Test [3] has as its target Pf ProRS Prolyl-tRNA synthetase (Plasmodium falciparum, UniProt Q8I5R7). Kind of test: PfProRS Kinase-Glo aminoacylation. To be noted: control 1µM; compounds 10 µM.
Another test concerns MAPK2. Also on record: method as in ref [25] (a number printed in a supplementary file, which may have a reference list of its own: not looked up in the article's list). Particulars: control 100 µM; compounds 1 µM; ref [25]; cited from earlier work.
Setting [4] is: metabolite level change after treatment.

Chain of cruzain (P25779 123-337): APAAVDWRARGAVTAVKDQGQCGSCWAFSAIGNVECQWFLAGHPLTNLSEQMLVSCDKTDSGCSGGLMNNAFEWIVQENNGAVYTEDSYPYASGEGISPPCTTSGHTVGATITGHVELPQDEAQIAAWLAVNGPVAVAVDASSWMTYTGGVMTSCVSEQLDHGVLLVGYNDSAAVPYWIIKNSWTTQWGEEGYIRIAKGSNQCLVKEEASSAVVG
Chain of Pf KRS Lysyl-tRNA Synthetase (Q8IDJ8 entry or part of it): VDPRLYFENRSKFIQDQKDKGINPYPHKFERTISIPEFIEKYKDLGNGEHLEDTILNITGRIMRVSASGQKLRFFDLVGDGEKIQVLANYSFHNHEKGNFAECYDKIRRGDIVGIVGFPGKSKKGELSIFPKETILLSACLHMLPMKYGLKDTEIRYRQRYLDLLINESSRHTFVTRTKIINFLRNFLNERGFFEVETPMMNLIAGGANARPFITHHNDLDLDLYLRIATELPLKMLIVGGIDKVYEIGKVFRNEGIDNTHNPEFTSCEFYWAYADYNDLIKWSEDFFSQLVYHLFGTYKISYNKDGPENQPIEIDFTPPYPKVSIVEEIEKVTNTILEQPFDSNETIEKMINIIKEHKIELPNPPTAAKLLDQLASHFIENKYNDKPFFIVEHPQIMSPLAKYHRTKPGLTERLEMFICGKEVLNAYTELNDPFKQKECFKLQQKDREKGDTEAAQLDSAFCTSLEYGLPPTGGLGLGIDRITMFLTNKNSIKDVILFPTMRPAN
Chain of Pf ProRS Prolyl-tRNA synthetase (Q8I5R7 8-746): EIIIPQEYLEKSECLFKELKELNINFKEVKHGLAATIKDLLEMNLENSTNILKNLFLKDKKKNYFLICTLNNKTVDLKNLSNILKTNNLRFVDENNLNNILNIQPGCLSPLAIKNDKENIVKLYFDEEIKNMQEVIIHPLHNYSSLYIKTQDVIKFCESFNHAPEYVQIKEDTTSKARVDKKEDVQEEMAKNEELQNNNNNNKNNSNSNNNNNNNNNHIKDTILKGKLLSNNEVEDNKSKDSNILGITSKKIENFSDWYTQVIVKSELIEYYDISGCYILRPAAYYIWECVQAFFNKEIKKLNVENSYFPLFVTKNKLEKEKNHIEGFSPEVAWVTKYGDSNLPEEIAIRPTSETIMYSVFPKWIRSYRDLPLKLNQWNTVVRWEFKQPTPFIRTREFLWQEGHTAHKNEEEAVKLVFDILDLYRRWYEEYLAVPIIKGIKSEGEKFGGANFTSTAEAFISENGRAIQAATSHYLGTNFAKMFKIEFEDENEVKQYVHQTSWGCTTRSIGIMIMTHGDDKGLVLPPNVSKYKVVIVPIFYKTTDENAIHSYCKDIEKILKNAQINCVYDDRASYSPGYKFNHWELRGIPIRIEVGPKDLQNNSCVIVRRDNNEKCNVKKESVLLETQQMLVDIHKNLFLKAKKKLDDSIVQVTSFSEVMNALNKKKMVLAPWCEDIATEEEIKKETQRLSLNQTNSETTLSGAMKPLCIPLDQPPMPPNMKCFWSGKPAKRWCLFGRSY

`C[C@H]1CCC[C@H](C[C@H]2Cc3cc(O)cc(O)c3C(=O)O2)O1` [Cladosporin] registered a PfKRS % inhibition in [1] of 100%.
On to `CC(C)(C)n1nc(-c2cccc3ccccc23)c2c(N)ncnc21` [1NA-PP1], for which the PK7 % inhibition in the test with PK7 was greater than 80%.
Consider `COc1cccc(C=Cc2nc(=O)c3ccccc3o2)c1OC` [MMV666693], for which the EC50 in the test with P. falciparum was determined as 23.8 nM. The Acetyllysine in [2] (S2 Table Metabolomics, metabolite Acetyllysine) was 0.1397. In addition, the N-acetyl-L-ornithine in [2] (S2 Table Metabolomics, metabolite N-acetyl-L-ornithine) amounted to 0.2363. In addition, the N-carbamoyl-L-aspartate in [2] (S2 Table Metabolomics, metabolite N-carbamoyl-L-aspartate) worked out at 3.172. Also, the NADPH in test [2] (S2 Table Metabolomics, metabolite NADPH) is recorded as 0.2825. The dAMP in [2] (S2 Table Metabolomics, metabolite dAMP) is on record as -0.08701. Further, the dCMP in [2] (S2 Table Metabolomics, metabolite dCMP) was 0.2474. Besides, in test [2] (S2 Table Metabolomics, metabolite dTDP), the dTDP was -0.7354. Further, in [2] (S2 Table Metabolomics, metabolite dTMP), the dTMP was -0.4318. Besides, the dTTP in [2] (S2 Table Metabolomics, metabolite dTTP) was -0.1932. Moreover, in test [2] (S2 Table Metabolomics, metabolite dihydroorotate), the dihydroorotate is listed as 3.894. In test [2] (S2 Table Metabolomics, metabolite orotate), the orotate is given as -0.9184. The DLH in test [2] (S2 Table Metabolomics, peptide DLH) is recorded as -0.06293. The same compound had a DLS/SDL/SID in test [2] (S2 Table Metabolomics, peptide DLS/SDL/SID) of -0.09731. This compound also came in with a PD in [2] (S2 Table Metabolomics, peptide PD) of 0.5949. The PEE in [2] (S2 Table Metabolomics, peptide PEE) was -0.05317. The compound also returned a PVNF in test [2] (S2 Table Metabolomics, peptide PVNF) of -0.1239. In test [2] (metabolite 3-phosphoglycerate, S2 Table Metabolomics), the 3-phosphoglycerate was found to be 0.2329. Further, the ADP-D-glucose in test [2] (metabolite ADP-D-glucose, S2 Table Metabolomics) was determined as 0.3504. Besides, the ATP in test [2] (metabolite ATP, S2 Table Metabolomics) is recorded as 0.6585. For the same compound, in test [2] (metabolite CDP, S2 Table Metabolomics, change in metabolite level after compound treatment), the CDP is recorded as -0.7718. Also, the D-sedoheptulose-1/7-phosphate in [2] (metabolite D-sedoheptulose-1/7-phosphate, S2 Table Metabolomics, change in metabolite level after compound treatment) came out at 0.3935. Besides, the FAD in [2] (metabolite FAD, S2 Table Metabolomics) stood at 0.6886. The GMP in test [2] (metabolite GMP, S2 Table Metabolomics, change in metabolite level after compound treatment) amounted to 2.325. Further, the “NAD+” value in test [2] (metabolite NAD+, S2 Table Metabolomics) is on record as 0.3862. For the same compound, the “NADP+” value in test [2] (metabolite NADP+, S2 Table Metabolomics) is recorded as 0.1667. In test [2] (metabolite Octoluse Bisphosphate, S2 Table Metabolomics, change in metabolite level after compound treatment), the “Octoluse Bisphosphate” value was 0.214. Further, in [2] (metabolite Pyroglutamic acid, S2 Table Metabolomics), the Pyroglutamic acid was -0.09945. Further, the UDP-D-glucose in [2] (metabolite UDP-D-glucose, S2 Table Metabolomics) stood at 0.3609. Besides, the UDP-D-glucuronate in test [2] (metabolite UDP-D-glucuronate, S2 Table Metabolomics) was 0.4012. Besides, the UDP-N-acetyl-glucosamine in test [2] (metabolite UDP-N-acetyl-glucosamine, S2 Table Metabolomics) was 0.3198. Besides, in test [2] (metabolite UDP, S2 Table Metabolomics, change in metabolite level after compound treatment), the UDP is given as -0.8743. In addition, the UMP in test [2] (metabolite UMP, S2 Table Metabolomics, change in metabolite level after compound treatment) is -0.7276. The UTP in [2] (metabolite UTP, S2 Table Metabolomics, change in metabolite level after compound treatment) was -0.635. The a-ketoglutarate in [2] (metabolite a-ketoglutarate, S2 Table Metabolomics) is given as -0.04301. For the same compound, the citrate/isocitrate in test [2] (metabolite citrate/isocitrate, S2 Table Metabolomics, change in metabolite level after compound treatment) is -0.1473. The cytidine in [2] (metabolite cytidine, S2 Table Metabolomics) was 0.3511. Also, in test [2] (metabolite dATP, S2 Table Metabolomics), the dATP came out at 0.7712. Further, the dGMP/AMP in test [2] (metabolite dGMP/AMP, S2 Table Metabolomics, change in metabolite level after compound treatment) is -0.2164. In [2] (metabolite fumarate, S2 Table Metabolomics, change in metabolite level after compound treatment), the fumarate worked out at 0.7025. The glucose-1/6-phosphate in test [2] (metabolite glucose-1/6-phosphate, S2 Table Metabolomics, change in metabolite level after compound treatment) is given as 0.5191. Besides, the glycerate in [2] (metabolite glycerate, S2 Table Metabolomics, change in metabolite level after compound treatment) is on record as -0.06297. Besides, in [2] (metabolite guanine, S2 Table Metabolomics, change in metabolite level after compound treatment), the guanine was 0.6599. Moreover, the guanosine in test [2] (metabolite guanosine, S2 Table Metabolomics, change in metabolite level after compound treatment) is 0.8246. In test [2] (metabolite hypoxanthine, S2 Table Metabolomics), the hypoxanthine is 0.08871. In addition, the indole in test [2] (metabolite indole, S2 Table Metabolomics) is recorded as 0.0369. Besides, in [2] (metabolite inosine, S2 Table Metabolomics, change in metabolite level after compound treatment), the inosine is reported as 0.4625. Further, in test [2] (setting [4]), the 2_3-Diphosphoglyceric acid was determined as 0.5942, the 4-phosphopantothenate is 0.0573, the 6-phospho-D-gluconate is on record as 0.4861 and the FMN was 0.3054. For the same compound, in test [2] (setting [4]), the IMP stood at 0.1618, the Pyrophosphate is on record as 0.3262, the Sedoheptoluse bisphosphate turned out to be 0.378 and the cyclic-AMP is given as 0.4484. Also, in test [2] (setting [4]), the glutathione disulfide is reported as 0.6375, the lactate is reported as 0.2118 and the myo-inositol turned out to be 0.3466. In addition, the nicotinate in test [2] (metabolite nicotinate, S2 Table Metabolomics) was 0.3154. The ornithine in test [2] (metabolite ornithine, S2 Table Metabolomics) is 0.1755. For the same compound, in test [2] (metabolite phosphoenolpyruvate, S2 Table Metabolomics), the phosphoenolpyruvate is listed as 0.1481. Also, the pyruvate in test [2] (metabolite pyruvate, S2 Table Metabolomics, change in metabolite level after compound treatment) is -0.005171. Also, in test [2] (metabolite ribose-phosphate, S2 Table Metabolomics), the ribose-phosphate was determined as 0.3602. The sarcosine/alanine in test [2] (metabolite sarcosine/alanine, S2 Table Metabolomics, change in metabolite level after compound treatment) was 0.4257. Also, in [2] (metabolite sn-glycerol-3-phosphate, S2 Table Metabolomics), the sn-glycerol-3-phosphate is reported as 0.6187. In test [2] (metabolite succinate/methylmalonic acid, S2 Table Metabolomics, change in metabolite level after compound treatment), the succinate/methylmalonic acid worked out at 0.3609. Further, the uridine in test [2] (metabolite uridine, S2 Table Metabolomics, change in metabolite level after compound treatment) was -0.1766. For the same compound, in test [2] (metabolite xanthosine, S2 Table Metabolomics, change in metabolite level after compound treatment), the xanthosine turned out to be 0.5199. The “PfEg5 ATPase inhibition in words” value with PfEg5 was “selective inhibitor”. Also, in the test with PvEg5, the “PvEg5 ATPase inhibition in words” value was “selective inhibitor”.
With `CC(C)C[C@H](NC(=O)[C@H]1O[C@@H]1C(=O)O)C(=O)NCCCCN=C(N)N` (relative stereo) [E-64, trans-Epoxysuccinyl-L-leucylamido-(4-guanidino) butane], the “Effects on asexual life cycle progression (treatment at ER, LR, T, S; merozoites; mitochondrial integrity)” value in the test with P. falciparum HB3 is reported as “X-S-S-X-o-o”. Moreover, on rhodesain, the rhodesain % inhibition entry was “approximately 100%”. Moreover, the cruzain % inhibition entry on cruzain is recorded as “approximately 100%”.
At P. falciparum HDAC1, `CC(/C=C/C(=O)NO)=C\[C@@H](C)C(=O)c1ccc(N(C)C)cc1` [trichostatin A] came in with a PfHDAC1 % inhibition of 89.9 ± 0.5%.
Regarding `O=C(CC1NCCCC1O)Cn1cnc2cc(Br)c(Cl)cc2c1=O` (stereo not drawn) [halofuginone], the PfProRS % inhibition in test [3] was 100%.
Take `Nc1ncnc2c1ncn2[C@@H]1O[C@H](COP(=O)(O)OP(=O)(O)NP(=O)(O)O)[C@@H](O)[C@H]1O` [AMP-PNP]: the MAPK2 % inhibition in the test on MAPK2 is given as greater than 80%.
